The text below walks through data of PMC12562321 (2025).

For test [1], the system named is OA63 (DNA, aptamer) CCGGGTGGGTGGGTGTGGTCTTGTATTTGATTATGTCTGTCGGCGCTTTTTGGCCCCTTCGTT
The test can be described thus: electrochemical aptasensor (DPV). As to conditions: 150 mM NaCl, 2 mM Mg2+; 50 mM Tris pH 7.5, 25 °C, 30 min; capture probe P63_8; 5-200 nM OA.

Test [2] deals with OA31 (DNA, aptamer) CCACCAACGAGAGTCAGAAAACCATGGTGGG
The test can be described thus: electrochemical aptasensor (DPV). The note with it: 150 mM NaCl, 2 mM Mg2+, capture probe P31_14.

With `C=C1[C@@H](O)[C@@H]2O[C@]3(CC[C@H](/C=C/[C@@H](C)[C@@H]4CC(C)=C[C@@]5(O[C@H](C[C@@](C)(O)C(=O)O)CC[C@H]5O)O4)O3)CC[C@H]2O[C@@H]1[C@@H](O)C[C@H](C)[C@H]1O[C@@]2(CCCCO2)CC[C@H]1C`, the binding entry is reported as “yes” in test [1] and “yes” in test [2] (50 mM Tris pH 7.5, 4 °C, 5 min, 5-200 nM OA).

For `C=C1[C@@H](O)[C@@H]2O[C@]3(CC[C@H](/C=C/[C@@H](C)[C@@H]4CC(C)=C[C@@]5(O[C@H](C[C@@](C)(O)C(=O)O)CC[C@H]5O)O4)O3)CC[C@H]2O[C@@H]1[C@@H](O)C[C@H](C)[C@H]1O[C@@]2(CC[C@H]1C)OCCC[C@H]2C`, in test [2] (50 mM Tris pH 7.5, sensitivity 2 times lower than for OA), the binding result is reported as “yes”.
